Measurements from patent US20260224563A1, “CRYSTALLINE FORMS OF 6-(3-((5-CHLORO-2-METHOXYPYRIDINE)-3-SULFONAMIDO)-2,6-DIFLUOROPHENYL)-N-METHYLIMIDAZO[1,5-A]PYRAZINE-1-CARBOXAMIDE AND METHODS FOR USING THE SAME” (HIBERCELL, INC., priority 2023, published 2026).
Structures can show the parent of a compound that is named as a salt.

Legend:
[1] = Heating of potassium salt forms (XRPD/DSC after heating); type: physicochemical
[2] = Water activity study of the crystalline potassium salt forms (acetone/water suspension, XRPD); type: physicochemical; settings: for Relative stability of crystalline forms: versus Form III of the potassium salt
Procedure: A water activity study of the potassium salt forms was conducted in two groups: (i) Form I and Form III of the potassium salt, and (ii) Form II and Form III of the potassium salt.
Each suspension was shaken at 700 rpm in a shaker at 25° C., 35° C., 45° C., and 50° C., and the sample was analyzed by XRPD.

Row | SMILES | Changes to XRPD patterns and DSC thermograms after heating ([1]; heating to 160° C.) | Relative stability of crystalline forms ([2]; aw≥0.93 at temperatures≤25° C.) | Stability of the hydrate ([1]; 24° C.±2° C. and 50-80% relative humidity) | Changes to XRPD pattern or DSC thermogram upon heating ([1]; heating to 180° C.) | Time of conversion to Form III of the potassium salt ([2]; KF wt. %>0.19, 25-50° C., KF wt. %~0.1, 25° C. in acetone/water) | Relative stability of crystalline forms ([2]; KF wt. %≤0.1 at 35-50° C. in acetone/water)
1 | CNC(=O)c1ncn2cc(-c3c(F)ccc(NS(=O)(=O)c4cc(Cl)cnc4OC)c3F)ncc12 [Potassium salt Form II, 6-(3-((5-chloro-2-methoxypyridine)-3-sulfonamido)-2,6-difluorophenyl)-N-methylimidazo[1,5-a]pyrazine-1-carboxamide] | slight change | more stable |  |  |  | 
2 | CNC(=O)c1ncn2cc(-c3c(F)ccc(NS(=O)(=O)c4cc(Cl)cnc4OC)c3F)ncc12 [Potassium salt Form I, 6-(3-((5-chloro-2-methoxypyridine)-3-sulfonamido)-2,6-difluorophenyl)-N-methylimidazo[1,5-a]pyrazine-1-carboxamide] |  |  | stable | No changes | ≤ 1 days | more stable
